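1) Cells in 96-well plates. 2) Compound, 48 h, 5 concentrations. 3) Linear interpolation between surrounding doses. 4) Unreached endpoint = highest concentration. GI50 is the concentration that inhibits growth by half.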 Activity calls are given as the source filed them. No stated cut-off is given here; in the data, active = GI50 up to about 1.1 µM and inactive = higher. Where only a bound is given, the exact number is not on record here.

Consider 11 compounds from ChEMBL document CHEMBL1201862, “PubChem BioAssay data set” (2004).

Test systems include CAKI-1; HOP-62; Hs-578T; IGROV-1; M14; MDA-MB-231; NCI-H226; NCI-H23; NCI-H522; OVCAR-5; SF-295; SF-539; SK-MEL-5; SW-620; UACC-62; UO-31; HOP-92; OVCAR-4; SK-MEL-2; RPMI-8226.
Holding throughout (experiment): inhibition of tumour cell growth, NCI panel, 48 h

For `C/C(=C\CO)CC/C=C(\C)CNc1ccccc1`, the GI50 with CAKI-1 was 57.5 µM (inactive); in the experiment with HOP-62, > 100 µM (inactive); in the experiment on Hs-578T, 29.8 µM (inactive); in the experiment with IGROV-1, > 100 µM (inactive); with M14, 62.7 µM (inactive); with MDA-MB-231 it was 34.8 µM (inactive). Also, the GI50 is 36.9 µM (inactive) with NCI-H226; < 0.01 µM (active) with NCI-H23; 23.2 µM (inactive) with NCI-H522; > 100 µM (inactive) in the experiment with OVCAR-5; 38.5 µM (inactive) with SF-295; 82.6 µM (inactive) with SF-539. The GI50 in the experiment with SK-MEL-5 is 16 µM (inactive); with SW-620 it was 50.2 µM (inactive); in the experiment with UACC-62 it was 36.1 µM (inactive); in the experiment with UO-31, 38.1 µM (inactive).

For `CO/N=C/c1c(-c2ccc(Cl)cc2)c(/C=N/OC)n2c1sc1ccccc12`, the GI50 was > 100 µM (inactive) in the experiment with CAKI-1; > 100 µM (inactive) in the experiment with HOP-62; 8.49 µM (inactive) in the experiment with HOP-92; > 100 µM (inactive) in the experiment with Hs-578T; > 100 µM (inactive) in the experiment with IGROV-1; > 100 µM (inactive) with MDA-MB-231. In addition, the GI50 is > 100 µM (inactive) in the experiment with NCI-H23; > 100 µM (inactive) in the experiment with NCI-H522; 83 µM (inactive) in the experiment on OVCAR-4; > 100 µM (inactive) in the experiment on OVCAR-5; > 100 µM (inactive) in the experiment on SF-295; > 100 µM (inactive) with SK-MEL-2. Also, the GI50 with SK-MEL-5, in the experiment on SW-620, with UACC-62 and in the experiment on UO-31 was > 100 µM (inactive) each time.

In the case of `C[C@H](CS)C(=O)N1c2ccccc2C[C@H]1C(=O)O`, the GI50 in the experiment with CAKI-1, in the experiment on HOP-62, in the experiment on Hs-578T, with IGROV-1, in the experiment with MDA-MB-231 and with NCI-H226 was > 100 µM (inactive) in each case. For the same compound, the GI50 in the experiment with NCI-H23, in the experiment on NCI-H522, in the experiment with OVCAR-4, in the experiment with OVCAR-5, in the experiment with SF-295 and in the experiment on SF-539 was > 100 µM (inactive) in each case. The GI50 with SK-MEL-2, in the experiment on SK-MEL-5, in the experiment on SW-620, with UACC-62 and with UO-31 was > 100 µM (inactive) throughout.

As to `O=C(Nc1cccc(F)c1)c1cc2ccc(O)cc2o/c1=N\c1ccccc1F`, the GI50 in the experiment with CAKI-1 is 4.39 µM (inactive); with HOP-62 it was 8.89 µM (inactive); with Hs-578T it was 1.57 µM (inactive); with IGROV-1 it was 2.96 µM (inactive); in the experiment with M14, 5.32 µM (inactive); with NCI-H23, 2.18 µM (inactive). The GI50 is 2.09 µM (inactive) with NCI-H522; 3.56 µM (inactive) in the experiment with OVCAR-4; 17.2 µM (inactive) in the experiment on OVCAR-5; 1.69 µM (inactive) in the experiment on RPMI-8226; 8.39 µM (inactive) in the experiment on SF-295; 7.43 µM (inactive) with SF-539. Besides, the GI50 with SK-MEL-2 is 4.8 µM (inactive); in the experiment with SK-MEL-5, 2.2 µM (inactive); in the experiment on SW-620 it was 4.7 µM (inactive); in the experiment with UACC-62, 4.38 µM (inactive); in the experiment on UO-31 it was 4 µM (inactive).

Consider `CC(=O)CC1(OC(=O)C2C(C=C(C)C)C2(C)C)C(=O)Nc2ccccc21` (centres undefined), for which the GI50 in the experiment with CAKI-1, in the experiment with HOP-62, with Hs-578T, in the experiment on IGROV-1, in the experiment on M14 and in the experiment on MDA-MB-231 was > 100 µM (inactive) in each case. For the same compound, the GI50 in the experiment with NCI-H226 is > 100 µM (inactive); with NCI-H23, > 100 µM (inactive); with NCI-H522, 64.6 µM (inactive); in the experiment on OVCAR-4, 84.9 µM (inactive); in the experiment on OVCAR-5, > 100 µM (inactive); in the experiment with RPMI-8226 it was 96.6 µM (inactive). Further, the GI50 in the experiment with SF-295, with SF-539, in the experiment on SK-MEL-2, in the experiment on SK-MEL-5, in the experiment with SW-620 and with UACC-62 was > 100 µM (inactive) in each case. In addition, in the experiment with UO-31, the GI50 is > 100 µM (inactive).

For `CC(=O)N1c2cc(/N=N/N(C)C)ccc2NC(=O)CC1C` (centres undefined), the GI50 in the experiment on CAKI-1, in the experiment with HOP-62, in the experiment with Hs-578T, in the experiment with IGROV-1, in the experiment on M14 and in the experiment with MDA-MB-231 was > 100 µM (inactive) throughout. The GI50 with NCI-H226, in the experiment with NCI-H23, in the experiment with NCI-H522, with OVCAR-4, in the experiment with OVCAR-5 and in the experiment on RPMI-8226 was > 100 µM (inactive) each time. Also, the GI50 in the experiment with SF-295, in the experiment with SK-MEL-2, in the experiment with SK-MEL-5, in the experiment on SW-620, with UACC-62 and in the experiment on UO-31 was > 100 µM (inactive) each time.

Consider `Cc1cc(N(CCC#N)CCC#N)ccc1/C=C/C(=O)Nc1cccc(Cl)c1`, for which the GI50 is > 100 µM (inactive) with CAKI-1; > 100 µM (inactive) with HOP-62; 43.4 µM (inactive) in the experiment with HOP-92; > 100 µM (inactive) with IGROV-1; > 100 µM (inactive) with M14; > 100 µM (inactive) in the experiment on NCI-H226. In addition, the GI50 with NCI-H23 is > 100 µM (inactive); with NCI-H522, 62.7 µM (inactive); in the experiment on OVCAR-4, 58.6 µM (inactive); in the experiment with OVCAR-5, > 100 µM (inactive); with RPMI-8226, > 100 µM (inactive); in the experiment on SF-295, > 100 µM (inactive). Besides, the GI50 with SF-539 is > 100 µM (inactive); in the experiment with SK-MEL-2 it was > 100 µM (inactive); in the experiment on SK-MEL-5, > 100 µM (inactive); in the experiment on SW-620, > 100 µM (inactive); in the experiment with UACC-62, 46.9 µM (inactive); in the experiment on UO-31, 27.6 µM (inactive).

Take `CC(=O)NN(c1ccccc1)C1CCN(c2ccccc2)N1C(C)=O` (centres undefined): the GI50 is 4.12 µM (inactive) with CAKI-1; > 10 µM (inactive) in the experiment with HOP-62; > 10 µM (inactive) in the experiment with Hs-578T; > 10 µM (inactive) in the experiment on IGROV-1; > 10 µM (inactive) in the experiment on M14; > 10 µM (inactive) in the experiment with MDA-MB-231. For the same compound, the GI50 in the experiment with NCI-H226 is > 10 µM (inactive); in the experiment on NCI-H23, > 10 µM (inactive); in the experiment on NCI-H522 it was 7.53 µM (inactive); in the experiment on OVCAR-4, > 10 µM (inactive); in the experiment on OVCAR-5, > 10 µM (inactive); with RPMI-8226, 8.71 µM (inactive). For the same compound, the GI50 in the experiment on SF-295 was 3.5 µM (inactive); in the experiment on SF-539 it was 4.85 µM (inactive); in the experiment on SK-MEL-2, > 10 µM (inactive); with SK-MEL-5, > 10 µM (inactive); in the experiment with SW-620 it was 0.889 µM (active); in the experiment with UO-31, 3.1 µM (inactive).

In the case of `C[N+](C)(CCNc1ccc(NCC[N+](C)(C)Cc2ccc([N+](=O)[O-])cc2)c2c1C(=O)c1c(O)ccc(O)c1C2=O)Cc1ccc([N+](=O)[O-])cc1`, the GI50 is > 50 µM (inactive) in the experiment with CAKI-1; > 50 µM (inactive) in the experiment with HOP-62; > 50 µM (inactive) in the experiment with Hs-578T; > 50 µM (inactive) in the experiment on IGROV-1; > 50 µM (inactive) in the experiment on M14; 2.65 µM (inactive) with MDA-MB-231. The GI50 with NCI-H23 is > 50 µM (inactive); with NCI-H522, > 50 µM (inactive); in the experiment on OVCAR-4, > 50 µM (inactive); in the experiment on OVCAR-5 it was > 50 µM (inactive); in the experiment with RPMI-8226 it was > 50 µM (inactive); in the experiment on SF-295, 16.7 µM (inactive). Further, the GI50 with SF-539 is 19.1 µM (inactive); in the experiment on SK-MEL-2, > 50 µM (inactive); with SK-MEL-5, 15 µM (inactive); with SW-620 it was > 50 µM (inactive); in the experiment on UACC-62 it was > 50 µM (inactive); with UO-31, 20.4 µM (inactive).

Turning to `CNC(=O)N(CCC#N)[C@H]1CCCC[C@@H]1N(C(=O)NC)c1ccccc1`, the GI50 in the experiment with CAKI-1, in the experiment on HOP-62, with HOP-92, with IGROV-1, with M14 and in the experiment on MDA-MB-231 was > 100 µM (inactive) in each case. Further, the GI50 in the experiment with NCI-H226, with NCI-H23, with NCI-H522, with OVCAR-4, in the experiment on OVCAR-5 and in the experiment on RPMI-8226 was > 100 µM (inactive) throughout. Moreover, the GI50 with SF-295, in the experiment on SF-539, with SK-MEL-2, in the experiment with SK-MEL-5, in the experiment with SW-620 and in the experiment with UACC-62 was > 100 µM (inactive) each time. In the experiment on UO-31, the GI50 is > 100 µM (inactive).

Consider `CN(C)CCCN1N=Nc2cccc3cccc1c23`, for which the GI50 in the experiment on CAKI-1 is > 71.3 µM (inactive); with HOP-62, > 100 µM (inactive); in the experiment on HOP-92 it was 90.6 µM (inactive); in the experiment with IGROV-1, > 100 µM (inactive); in the experiment on M14, > 43.4 µM (inactive); in the experiment on NCI-H226, > 100 µM (inactive). In addition, the GI50 is > 100 µM (inactive) in the experiment with NCI-H23; 50.9 µM (inactive) in the experiment with NCI-H522; 20.3 µM (inactive) with OVCAR-4; > 91.4 µM (inactive) in the experiment with OVCAR-5; > 51.1 µM (inactive) with RPMI-8226; > 90.8 µM (inactive) with SF-295. Also, the GI50 was > 60.7 µM (inactive) in the experiment on SF-539; > 100 µM (inactive) in the experiment with SK-MEL-2; > 84.9 µM (inactive) with SK-MEL-5; 24.3 µM (inactive) with SW-620; > 100 µM (inactive) in the experiment with UACC-62; > 64.6 µM (inactive) in the experiment with UO-31.
